Values after ≈ are worked out from the molar mass of the structure shown. Active and inactive are the calls of the source. The rule behind the calls is not given here.
What was measured:
[1] = tested on: Escherichia coli; experiment: Antibacterial activity of against Escherichia coli mutant (envA1) was determined.; type: functional, organism-based
[2] = biological target: T1, UDP-3-O-acyl-N-acetylglucosamine deacetylase (Escherichia coli K-12, UniProt P0A725); experiment: Inhibition of UDP-3-O-[R-3-hydroxymyristoyl]-GlcNAc deacetylase using coupled radiochemical assay (WAVE) in Escherichia coli strain JB 1104
T1 sequence (P0A725 whole entry): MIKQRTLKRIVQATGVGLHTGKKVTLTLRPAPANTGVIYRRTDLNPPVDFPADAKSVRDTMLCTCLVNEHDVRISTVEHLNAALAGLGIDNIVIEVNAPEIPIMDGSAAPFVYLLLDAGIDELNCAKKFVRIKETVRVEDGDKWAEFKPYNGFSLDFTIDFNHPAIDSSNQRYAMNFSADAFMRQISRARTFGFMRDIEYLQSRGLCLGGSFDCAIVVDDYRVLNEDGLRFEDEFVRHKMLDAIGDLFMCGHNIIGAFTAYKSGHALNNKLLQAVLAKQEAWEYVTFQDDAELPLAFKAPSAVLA

[3] = biological target: T1, UDP-3-O-acyl-N-acetylglucosamine deacetylase; experiment: Inhibition of UDP-3-O-[R-3-hydroxymyristoyl]-GlcNAc deacetylase using direct deacetylase assay (DEACET) in Escherichia coli strain JB 1104
[4] = tested on: Escherichia coli; experiment: Antibacterial activity against Escherichia coli was determined; Ranges from 1-3; type: functional
[5] = tested on: Pseudomonas; experiment: Antibacterial activity against Pseudomonas was determined; NA=not active; type: functional, organism-based
[6] = tested on: Escherichia coli; experiment: Antibacterial activity against Escherichia coli mutant (envA1) was determined; Ranges from 0.008-0.016; type: functional
[7] = tested on: Serratia; experiment: Antibacterial activity against Serratia was determined; NA=not active; type: functional, organism-based
[8] = tested on: Escherichia coli; experiment: Antibacterial activity against Escherichia coli was determined; type: functional
[9] = tested on: Escherichia coli; experiment: Antibacterial activity against Escherichia coli mutant (envA1) was determined; type: functional
[10] = tested on: Escherichia coli; experiment: Antibacterial activity against Escherichia coli was determined; Ranges from 25-50; type: functional
[11] = tested on: Escherichia coli; experiment: Antibacterial activity against Escherichia coli was determined; Ranges from 200-400; type: functional
[12] = tested on: Escherichia coli; experiment: Antibacterial activity against Escherichia coli was determined; Ranges from […]; type: functional

SMILES | MIC [1] | IC50 ([2]; read-out: IC50) [nM] | IC50 [3] [nM] | MIC [9] [µg/mL] | also measured
CCCc1ccc(C2=N[C@@H](C(=O)NO)CO2)cc1 | inactive | 100 | – | – | –
O=C(NO)C1COC(c2cccnc2)=N1 (configuration not stated) | inactive | – | 100000 | – | –
O=C(O)C1COC(c2ccccc2)=N1 (configuration not stated) | – | > 400000 | – | – | –
O=C(NO)[C@H]1COC(c2ccco2)=N1 | inactive | 9000 | – | – | –
CCCc1cc(C2=N[C@@H](C(=O)NO)CO2)cc(OC)c1OC | – | – | 30 | – | MIC [4]: 1 µg/mL (≈ 3.24 µM); MIC [5]: inactive; MIC [6]: 0.008 µg/mL (≈ 0.0259 µM); MIC [7]: inactive
CN(OCc1ccccc1)C(=O)[C@H]1COC(c2ccccc2)=N1 | – | > 400000 | – | – | –
CCc1ccc(C2=N[C@@H](C(=O)NO)CO2)cc1 | inactive | 200 | 600 | – | –
CCCc1cccc(C2=N[C@@H](C(=O)NO)CO2)c1 | – | 50 | 1600 | 0.06 (≈ 0.242 µM) | MIC [8]: 12.5 µg/mL (≈ 50.3 µM)
O=C(NO)C1COC(c2ccccc2Cl)=N1 (configuration not stated) | – | – | 30000 | – | –
COc1ccc(C2=N[C@@H](C(=O)NO)CO2)cc1 | – | 300 | 1400 | 0.25 (≈ 1.06 µM) | MIC [10]: 25 µg/mL (≈ 106 µM)
O=C(NO)C1COC(c2ccccc2)=N1 (configuration not stated) | – | 3000 | 8500 | 3.6 (≈ 17.5 µM) | MIC [11]: 200 µg/mL (≈ 970 µM)
COc1cc(C2=N[C@@H](C(=O)NO)CO2)cc(OC)c1OC | inactive | – | 300 | – | –
CCCc1cc(C2=NC(C(=O)NO)CO2)ccc1OC (configuration not stated) | – | – | 300 | 0.1 (≈ 0.359 µM) | MIC [8]: 12.5 µg/mL (≈ 44.9 µM)
CCCc1cc(C2=NC(C(=O)NO)CO2)cc(O)c1OC (configuration not stated) | – | – | 100 | 0.06 (≈ 0.204 µM) | MIC [8]: 12.5 µg/mL (≈ 42.5 µM)
O=C(NO)C1COC(c2ccncc2)=N1 (configuration not stated) | inactive | – | 100000 | – | –
COC(=O)C1COC(c2ccccc2)=N1 (configuration not stated) | – | > 400000 | – | – | –
O=C(NO)C1COC(c2c(Cl)cccc2Cl)=N1 (configuration not stated) | inactive | – | > 200000 | – | IC50 [2]: Not Active
O=C(NO)[C@@H]1COC(c2ccccc2)=N1 | – | 360000 | – | – | –
Cc1ccc(C2=NC(C(=O)NO)CO2)cc1 (configuration not stated) | inactive | 1700 | – | – | –
CCCc1cc(C2=NC(C(=O)NO)CO2)cc(OCc2ccccc2)c1OC (configuration not stated) | – | – | 20 | < 0.008 | MIC [8]: 25 µg/mL (≈ 65 µM)
Cc1ccccc1C1=NC(C(=O)NO)CO1 (configuration not stated) | inactive | 2600 | – | – | –
CCCc1cc(C2=NC(C(=O)NO)CO2)cc(OC)c1O (configuration not stated) | – | – | 1400 | 0.39 (≈ 1.33 µM) | MIC [8]: > 100 µg/mL
Cc1cccc(C2=NC(C(=O)NO)CO2)c1 (configuration not stated) | inactive | 1100 | – | – | –
O=C(NO)[C@H]1COC(c2ccccc2)=N1 | – | 1500 | 6000 | – | –
CN(O)C(=O)[C@H]1COC(c2ccccc2)=N1 | – | > 400000 | – | – | –
CCCc1cc(C2=NC(C(=O)NO)CO2)cc(OC)c1OC (configuration not stated) | – | – | 50 | < 0.05 | MIC [12]: 3 µg/mL (≈ 9.73 µM)
